The structures appear in SMILES notation. Marks after values point to notes of the source that are not given here.

The values below come from patent EP3839043A1, “SCREENING METHODS FOR COMPOUNDS MODULATING POLYAMINE TRANSPORT” (Katholieke Universiteit Leuven, priority 2019, dated 2021).

The target of series [1] is T1, Microsomal ATP13A2 (Homo sapiens, UniProt Q9NQ11).
T1 construct: expressed in transfected cells; host or cells: SH-SY5Y human neuroblastoma cells, lentiviral transduction; microsomes solubilised with DDM
T1 sequence (Q9NQ11 1-1175 isoform Q9NQ11-3): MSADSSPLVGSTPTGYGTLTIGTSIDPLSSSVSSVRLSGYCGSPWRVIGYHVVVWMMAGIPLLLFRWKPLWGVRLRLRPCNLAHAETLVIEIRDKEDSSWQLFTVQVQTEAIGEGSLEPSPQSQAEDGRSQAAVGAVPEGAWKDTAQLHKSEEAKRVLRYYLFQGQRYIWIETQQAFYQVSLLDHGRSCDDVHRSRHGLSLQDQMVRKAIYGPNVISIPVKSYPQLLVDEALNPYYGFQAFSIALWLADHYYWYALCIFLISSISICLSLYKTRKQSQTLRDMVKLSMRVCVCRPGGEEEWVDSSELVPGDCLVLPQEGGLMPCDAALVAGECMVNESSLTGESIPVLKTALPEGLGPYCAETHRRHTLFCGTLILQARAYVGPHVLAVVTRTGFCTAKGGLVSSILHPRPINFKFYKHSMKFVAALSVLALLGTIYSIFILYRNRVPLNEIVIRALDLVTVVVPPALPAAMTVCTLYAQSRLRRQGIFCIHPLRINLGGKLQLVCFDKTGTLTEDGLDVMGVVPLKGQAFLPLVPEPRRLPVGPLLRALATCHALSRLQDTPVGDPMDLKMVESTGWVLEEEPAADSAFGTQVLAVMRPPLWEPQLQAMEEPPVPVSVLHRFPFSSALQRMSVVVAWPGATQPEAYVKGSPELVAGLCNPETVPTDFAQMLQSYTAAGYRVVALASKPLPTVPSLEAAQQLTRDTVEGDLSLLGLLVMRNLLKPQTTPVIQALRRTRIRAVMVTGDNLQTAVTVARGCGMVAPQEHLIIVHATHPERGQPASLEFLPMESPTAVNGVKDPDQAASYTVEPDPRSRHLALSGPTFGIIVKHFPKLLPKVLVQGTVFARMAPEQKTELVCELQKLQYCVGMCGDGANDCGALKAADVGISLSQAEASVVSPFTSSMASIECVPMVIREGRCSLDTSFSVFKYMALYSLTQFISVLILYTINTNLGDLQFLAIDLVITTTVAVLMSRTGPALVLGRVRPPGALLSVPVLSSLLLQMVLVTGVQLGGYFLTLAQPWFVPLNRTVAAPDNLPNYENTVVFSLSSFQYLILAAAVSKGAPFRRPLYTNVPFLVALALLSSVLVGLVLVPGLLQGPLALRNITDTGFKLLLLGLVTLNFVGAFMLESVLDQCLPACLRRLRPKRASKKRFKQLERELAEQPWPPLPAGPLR
Put plainly: ATPase assay (ADP-Glo Max), solubilized microsomes of SH-SY5Y cells overexpressing ATP13A2 WT. The series is classed as biochemical. Conditions: for ATPase activity of ATP13A2 WT, screen for candidate substrates: 100 nM CaCl2, MnCl2, ZnCl2 or FeCl3, 100 µM SPD or SPM; for Vmax ± SEM: Microsomal ATP13A2; for ATPase activity of ATP13A2, dose-response: indicated doses, microsomes 5 µg. How it is done:
Membrane fractionation - Transduced SH-SY5Y cells were seeded in […] at a density of 6 x 10^6 cells per plate. 24 h later, the cells were harvested following trypsinization and brief centrifugation (300 x g, 5 min). Subcellular fractionation was performed by differential centrifugation. The microsomal protein concentration was measured using the bicinchoninic acid assay (Thermo Fischer Scientific, Pierce) according to the manufacturer's instructions.
ATPase assay - The ATPase activity of ATP13A2 was assessed using a commercially available luminescence assay (ADP-Glo Max assay, Promega) that monitors the production of ADP via luciferase activity. The reactions were performed for 30 min (37°C) in a final volume of 25 µl. […] The assay was started by the addition of 5 mM ATP and was terminated by adding 25 µl of ADP-Glo Reagent. The 96-well plate was then incubated for 40 min at room temperature, followed by the addition of 50 µl of ADP-Glo Max Detection Reagent. After 40 min, luminescence was detected using a FlexStation 3.0 system (Molecular Devices). Dose-response curves and n/Km/Vmax values were calculated using GraphPad Prism Software (GraphPad Software Inc.).
A general note: ADP-Glo turns the ADP formed in a reaction into a luminescent signal.

Series [2] concerns SH-SY5Y cells. Put plainly: MUH cytotoxicity assay. The series is classed as cell-based, human. The conditions noted are these: increasing concentrations, 24 h. On the procedure:
MUH cytotoxicity assay - SH-SY5Y cells were seeded in 96-well plates (1 X 10^4 cells per well) and allowed to adhere overnight. The cells were subsequently treated with increasing doses of the indicated compounds for 24-48 h. Following exposure, the cells were washed with PBS and stained with 300 µg/ml MUH (prepared in DMSO, dissolved in PBS) for 30 min at 37°C.

`NCCCCNCCCN` [Spermidine, spermidine]: in series [1], the “ATPase activity of ATP13A2 WT, screen for candidate substrates” value is “significantly stimulated ATPase activity”; the “Vmax ± SEM” value is given as “∼ 106* nmol ADP/mg/min”; the “ATPase activity of ATP13A2, dose-response” value is on record as “stimulate ATPase activity in a concentration-dependent manner”. The “viability of control cells” value in series [2] is reported as “reduced the viability”.

Turning to `NCCCNCCCCNCCCN` [Spermine, spermine], in series [1], the “ATPase activity of ATP13A2 WT, screen for candidate substrates” value was “significantly stimulated ATPase activity”; the “Vmax ± SEM” value was found to be 140 ± 6 nmol ADP/mg/min; the “ATPase activity of ATP13A2, dose-response” value is on record as “stimulate ATPase activity in a concentration-dependent manner”. In addition, the “Hill coefficient of SPM-induced ATPase activity” value in series [1] (microsomal ATP13A2 WT) is “approaches one”. Besides, in series [2], the “viability of control cells” value is “reduced the viability”.
